Measured values as given in ChEMBL document CHEMBL5665443, “Enzyme Inhibitor Single Concentration assay results for EUbOPEN Chemogenomics Library” (2024).

Tests used:
[1] = target: Endonuclease 8-like 1 (Homo sapiens) (UniProt Q96FI4); settings: Hit No;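 also: fluorescence at 594 nm from quenched duplex DNA oligonucleotides released by NEIL1 cleavage and strand separation, reported as reduction of this enzyme activity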
Description: Inhibition of NEIL1 by quantifying inhibition of NEIL1-mediated cleavage and dissociation of quenched duplex DNA oligonucleotides, measured as fluorescence at 594 nm.

[2] = target: T1, Endonuclease 8-like 2 (Homo sapiens) (UniProt Q969S2); settings: Hit No;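 also: fluorescence at 594 nm reports NEIL2 cutting and release of a quenched double-stranded DNA oligo substrate, reduced signal read as inhibition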
T1 sequence (whole entry): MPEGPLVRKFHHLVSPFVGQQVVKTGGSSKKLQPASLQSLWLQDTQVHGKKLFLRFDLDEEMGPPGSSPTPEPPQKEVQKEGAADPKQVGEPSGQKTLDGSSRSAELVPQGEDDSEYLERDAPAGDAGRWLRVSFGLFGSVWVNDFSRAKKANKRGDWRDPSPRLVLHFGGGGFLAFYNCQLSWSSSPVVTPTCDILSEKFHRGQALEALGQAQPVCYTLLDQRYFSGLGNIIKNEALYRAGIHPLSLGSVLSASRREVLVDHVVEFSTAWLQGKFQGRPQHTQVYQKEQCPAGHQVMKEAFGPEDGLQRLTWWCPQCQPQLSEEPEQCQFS
Description: Inhibition of NEIL2 by quantifying inhibition of NEIL2-mediated cleavage and dissociation of quenched duplex DNA oligonucleotides, measured as fluorescence at 594 nm.

[3] = target: T2, Endonuclease III-like protein 1 (Homo sapiens) (UniProt P78549); settings: Hit No;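 also: enzyme assay tracking NTHL1 cutting and release of a quenched double-stranded DNA oligo substrate, read as fluorescence at 594 nm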
T2 sequence (whole entry): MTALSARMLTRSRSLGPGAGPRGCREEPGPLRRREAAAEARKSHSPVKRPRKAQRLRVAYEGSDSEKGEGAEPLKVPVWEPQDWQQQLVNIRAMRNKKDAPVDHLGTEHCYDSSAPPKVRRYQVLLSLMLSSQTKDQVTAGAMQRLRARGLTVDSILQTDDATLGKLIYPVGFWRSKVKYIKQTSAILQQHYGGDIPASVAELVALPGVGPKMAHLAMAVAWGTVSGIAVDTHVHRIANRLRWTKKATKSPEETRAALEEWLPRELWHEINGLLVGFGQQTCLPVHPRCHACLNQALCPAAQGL
Description: Inhibition of NTHL1 by quantifying inhibition of NTHL1-mediated cleavage and dissociation of quenched duplex DNA oligonucleotides, measured as fluorescence at 594 nm.

[4] = target: T3, Single-strand selective monofunctional uracil DNA glycosylase (Homo sapiens) (UniProt Q53HV7); settings: Hit No;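 also: enzymatic SMUG1 assay coupled with APE1, reading fluorescence at 594 nm released when a quenched double-stranded DNA oligonucleotide substrate is cleaved and separated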
T3 sequence (whole entry): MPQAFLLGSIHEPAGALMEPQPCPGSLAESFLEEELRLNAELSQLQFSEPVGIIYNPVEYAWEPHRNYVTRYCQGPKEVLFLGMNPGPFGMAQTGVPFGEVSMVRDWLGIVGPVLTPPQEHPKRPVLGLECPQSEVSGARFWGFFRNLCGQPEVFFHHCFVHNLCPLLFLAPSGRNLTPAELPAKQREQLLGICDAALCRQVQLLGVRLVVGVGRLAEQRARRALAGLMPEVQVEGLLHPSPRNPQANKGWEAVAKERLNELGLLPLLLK
Description: Inhibition of SMUG1 by quantifying inhibition of SMUG1-mediated cleavage and dissociation of quenched duplex DNA oligonucleotides, measured as fluorescence at 594 nm. To generate a functional strand incision and increase turn-over this assay is coupled to APE1.

[5] = target: G/T mismatch-specific thymine DNA glycosylase (Homo sapiens) (UniProt Q13569); settings: Hit No;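 also: human TDG cleavage of quenched duplex DNA oligonucleotides coupled to APE1, strand release read as fluorescence at 594 nm, inhibition of TDG activity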
Sequence of G/T mismatch-specific thymine DNA glycosylase (Homo sapiens) (Q13569 whole entry): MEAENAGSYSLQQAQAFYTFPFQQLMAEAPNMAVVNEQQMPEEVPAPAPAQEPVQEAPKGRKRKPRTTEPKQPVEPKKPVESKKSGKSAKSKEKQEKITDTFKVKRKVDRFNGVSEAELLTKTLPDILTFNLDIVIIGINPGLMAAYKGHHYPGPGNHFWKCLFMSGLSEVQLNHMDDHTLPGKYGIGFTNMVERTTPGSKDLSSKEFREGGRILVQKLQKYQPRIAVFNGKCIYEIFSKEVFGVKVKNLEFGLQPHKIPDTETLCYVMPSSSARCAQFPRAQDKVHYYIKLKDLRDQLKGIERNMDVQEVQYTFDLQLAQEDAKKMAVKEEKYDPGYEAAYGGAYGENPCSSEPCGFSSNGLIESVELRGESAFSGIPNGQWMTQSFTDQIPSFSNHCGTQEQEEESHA
Description: Inhibition of TDG by quantifying inhibition of TDG-mediated cleavage and dissociation of quenched duplex DNA oligonucleotides, measured as fluorescence at 594 nm. To generate a functional strand incision and increase turn-over this assay is coupled to APE1.

[6] = target: Uracil-DNA glycosylase (Homo sapiens) (UniProt P13051); settings: Hit No;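 also: UNG excision on a quenched double-stranded DNA oligo probe, with APE1 added for strand incision and turnover, read as fluorescence at 594 nm as strands separate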
Sequence of Uracil-DNA glycosylase (Homo sapiens) (P13051 whole entry): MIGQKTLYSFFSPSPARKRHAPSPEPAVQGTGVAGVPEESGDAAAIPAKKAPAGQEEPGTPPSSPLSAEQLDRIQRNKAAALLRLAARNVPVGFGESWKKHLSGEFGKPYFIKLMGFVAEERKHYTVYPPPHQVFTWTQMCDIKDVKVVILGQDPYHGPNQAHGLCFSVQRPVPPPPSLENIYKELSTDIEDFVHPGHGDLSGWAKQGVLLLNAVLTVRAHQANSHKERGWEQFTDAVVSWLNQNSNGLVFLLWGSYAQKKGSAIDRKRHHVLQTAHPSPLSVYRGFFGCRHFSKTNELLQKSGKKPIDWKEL
Description: Inhibition of UNG by quantifying inhibition of UNG-mediated cleavage and dissociation of quenched duplex DNA oligonucleotides, measured as fluorescence at 594 nm. To generate a functional strand incision and increase turn-over this assay is coupled to APE1.

[7] = target: N-glycosylase/DNA lyase (Homo sapiens) (UniProt O15527); settings: Compound Concentration 10.0 uM, Hit No;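 also: OGG1 cleavage of a quenched duplex DNA oligonucleotide, coupled to APE1 for strand incision, read as fluorescence at 594 nm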
Sequence of N-glycosylase/DNA lyase (Homo sapiens) (O15527 whole entry): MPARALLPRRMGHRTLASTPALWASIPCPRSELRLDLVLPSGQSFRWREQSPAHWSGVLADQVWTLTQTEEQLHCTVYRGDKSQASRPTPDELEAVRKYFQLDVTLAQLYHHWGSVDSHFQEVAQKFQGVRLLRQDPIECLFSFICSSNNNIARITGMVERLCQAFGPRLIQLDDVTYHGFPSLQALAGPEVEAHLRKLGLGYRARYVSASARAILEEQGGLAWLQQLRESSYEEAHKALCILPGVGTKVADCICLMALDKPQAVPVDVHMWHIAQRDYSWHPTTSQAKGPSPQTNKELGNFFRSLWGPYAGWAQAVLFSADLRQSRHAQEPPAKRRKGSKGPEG
Description: Inhibition of OGG1 by quantifying inhibition of OGG1-mediated cleavage and dissociation of quenched duplex DNA oligonucleotides, measured as fluorescence at 594 nm. To generate a functional strand incision and increase turn-over this assay is coupled to APE1.

Sequence of Endonuclease 8-like 1 (Homo sapiens) (Q96FI4 whole entry): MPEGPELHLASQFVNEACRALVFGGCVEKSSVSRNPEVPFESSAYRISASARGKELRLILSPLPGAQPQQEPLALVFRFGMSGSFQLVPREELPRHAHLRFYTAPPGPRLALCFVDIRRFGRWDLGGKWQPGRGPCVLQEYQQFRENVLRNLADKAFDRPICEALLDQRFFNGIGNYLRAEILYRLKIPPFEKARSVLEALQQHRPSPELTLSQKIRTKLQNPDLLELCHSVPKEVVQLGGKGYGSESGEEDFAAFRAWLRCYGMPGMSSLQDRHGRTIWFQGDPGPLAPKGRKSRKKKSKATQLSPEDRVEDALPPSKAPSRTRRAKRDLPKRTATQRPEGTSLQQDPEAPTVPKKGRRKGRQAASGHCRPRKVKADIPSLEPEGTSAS

SMILES | inhibition ([1]; Compound Concentration 10.0 uM) | inhibition ([2]; Compound Concentration 10.0 uM) | inhibition ([3]; Compound Concentration 10.0 uM) | inhibition ([4]; Compound Concentration 10.0 uM) | inhibition ([5]; Compound Concentration 10.0 uM) | inhibition ([6]; Compound Concentration 10.0 uM) | inhibition [7] | inhibition ([1]; Compound Concentration 1.0 uM) | inhibition ([2]; Compound Concentration 1.0 uM) | inhibition ([3]; Compound Concentration 1.0 uM) | inhibition ([4]; Compound Concentration 1.0 uM) | inhibition ([5]; Compound Concentration 1.0 uM) | inhibition ([6]; Compound Concentration 1.0 uM)
CC(C)(N)C(=O)N[C@H](COCc1ccccc1)C(=O)N1CCC2(CC1)CN(S(C)(=O)=O)c1ccccc12 | 7.36% | 7% | -1.74% | -6.91% | 6.18% | -9.48% | – | – | – | – | – | – | –
CN1CCN(c2nc3cc(C(F)(F)F)ccc3n3cccc23)CC1 | -1.92% | 16.2% | 16.2% | – | – | 0.522% | -6.12% | – | – | – | – | – | –
CC[N+](CC)(CC)CCOc1ccc(/C=C/c2ccccc2)cc1 | 3.86% | 0.669% | 0.568% | 8.74% | – | 1.13% | – | – | – | – | – | – | –
CN(CCN1CCC(OC(=O)Nc2ccccc2-c2ccccc2)CC1)C(=O)c1ccc(CN2CCC(C(N)=O)CC2)cc1 | 3.95% | -7.72% | 15.8% | – | – | – | -7.57% | – | – | – | – | – | –
CCN1CCN(c2ccc(Nc3cc(N(C)C(=O)Nc4c(Cl)c(OC)cc(OC)c4Cl)ncn3)cc2)CC1 | – | – | – | – | – | – | – | -0.787% | -7.84% | 1.48% | 20.5% | 47.5% | 1.97%
N#Cc1c(N)nc(SCC(N)=O)c(C#N)c1-c1ccc(OCC2CC2)cc1 | 5.43% | 6.25% | 13.7% | – | – | – | 6.64% | – | – | – | – | – | –
N#Cc1cc2c(OCC(O)CN3CCN(C(c4ccccc4)c4ccccc4)CC3)cccc2[nH]1 (racemic) | 7.06% | -1.98% | -4.67% | – | -7.45% | -9.6% | -4.64% | – | – | – | – | – | –
CN1CCN(c2nc(N)c3ccccc3n2)CC1 | 6.68% | 16% | 17.1% | – | -3.58% | -6.76% | -6.52% | – | – | – | – | – | –
CCCC(=O)C1(c2ccccc2)CCN(C(=O)[C@@H](Cc2ccc(OC)cc2)NC(=O)[C@@H](N)Cc2cncn2C)CC1 | 0.454% | -1.37% | -2.73% | – | – | -7.56% | -8.78% | – | – | – | – | – | –
CN(C(=O)c1ccccc1)c1cc(N(C)c2ccc3c(c2)CCc2ccc(C(=O)NCCN4CCOCC4)cc2C3=O)ccc1F | -3.21% | -1.45% | 3.6% | – | – | – | -2.17% | – | – | – | – | – | –
CCc1nn2c(C)cc(C)nc2c1Cc1ccc(-c2nnc(C3CCNCC3)o2)cc1 | 6.02% | 2.26% | -9.8% | – | 1.84% | – | -9.16% | – | – | – | – | – | –
COc1cc(C)c(Sc2cnc(NC(=O)c3ccc(CNC(C)C(C)(C)C)cc3)s2)cc1C(=O)N1CCN(C(C)=O)CC1 (stereo not drawn) | -0.787% | – | -3.4% | 19.5% | 37.6% | 4.76% | – | – | – | – | – | – | –
CCc1nn(CCCN2CCN(c3cccc(Cl)c3)CC2)c(=O)n1CCOc1ccccc1 | -3.02% | -4.48% | 7.79% | – | – | -5.52% | – | – | – | – | – | – | –
O=C(NCCN1CCC(n2c(=O)[nH]c3cc(Cl)ccc32)CC1)c1ccc(F)cc1 | 5.43% | 1.51% | -1.74% | – | -0.00915% | – | – | – | – | – | – | – | –
CCCCCCCCCCCCC/C=C/[C@@H](O)[C@@H](N)COP(=O)(O)O | 4.69% | 6.5% | -7.6% | – | -7.17% | -6.96% | 2.2% | – | – | – | – | – | –
COc1ccc(S(=O)(=O)N2C(=O)[C@@](c3ccccc3OC)(N3C[C@H](O)C[C@H]3C(=O)N(C)C)c3cc(Cl)ccc32)c(OC)c1 | 2.68% | -8.25% | -0.258% | – | – | 1.21% | – | – | – | – | – | – | –
CCOc1ccc(-n2c([C@@H](C)N(Cc3cccnc3)C(=O)Cc3ccc(F)c(C(F)(F)F)c3)nc3ncccc3c2=O)cc1 | 6.83% | -4.17% | 5.52% | – | – | -5.43% | – | – | – | – | – | – | –
CSCC[C@H](NC(=O)[C@H](Cc1ccc(O)cc1)NC(=O)[C@H](CCCCN)NC(=O)[C@@H](N)Cc1c[nH]c2ccccc12)C(=O)N[C@H](C(=O)N[C@H](CCSC)C(N)=O)C(C)C | 13.1% | -4.17% | 21.2% | – | – | -1.7% | – | – | – | – | – | – | –
CCCSc1nc(N[C@@H]2C[C@H]2c2ccc(F)c(F)c2)c2nnn([C@@H]3C[C@H](OCCO)[C@@H](O)[C@H]3O)c2n1 | -9.1% | – | 11.4% | – | -6.53% | -5.37% | -6.84% | – | – | – | – | – | –
CCOc1cc2ncc(C#N)c(Nc3ccc(OCc4cccc(F)c4)c(Cl)c3)c2cc1NC(=O)/C=C/CN(C)C | – | – | – | – | – | – | – | – | – | -5.49% | 11.5% | 25.8% | 3.4%
Cc1nc2ccc(Oc3ccc(F)cc3)cc2c(=O)n1C[C@H]1CCCN(C(C)C)C1 | 6.38% | – | -3.56% | -4.48% | -8.54% | -4.71% | – | – | – | – | – | – | –
N=C(N)NCCC[C@H](NC(=O)C12CC3CC(CC(C3)C1)C2)C(=O)N[C@@H](Cc1ccccc1)C(N)=O | 4.9% | -4.94% | 13.8% | -6% | – | -7.87% | – | – | – | – | – | – | –
CC(C)CNc1nc(N2CCN(CC3CCCOC3)CC2)ncc1C(=O)NCc1ccccc1 (stereo not drawn) | 2.23% | -0.0955% | -1.08% | – | – | -1.17% | – | – | – | – | – | – | –
c1ccc2oc(-c3csc(C4CCN(Cc5nc6ncccc6[nH]5)CC4)n3)cc2c1 | -4.83% | 1.3% | -1.29% | – | 76.8% | -7.49% | 2.49% | – | – | – | – | – | –
Cc1ccccc1N1CCN(S(=O)(=O)C[C@]23CC[C@H](C[C@@H]2NC(=O)[C@@H](N)CCS(C)(=O)=O)C3(C)C)CC1 | 10.9% | -8.47% | 20.2% | – | -7.58% | -9.38% | -1.3% | – | – | – | – | – | –
CC(F)(F)CN1CCOc2c(nn(-c3ccccc3Cl)c2-c2ccc(Cl)cc2)C1=O | -3.02% | 4.76% | 14.4% | – | -6.66% | -4.73% | 1.85% | – | – | – | – | – | –
CCCC(=O)C1CCN(c2ncnc3c2CN(C(=O)c2ccc(-c4ccccc4)cc2)CC3)CC1 | 0.75% | -0.605% | 12.1% | – | – | -3.39% | -4.93% | – | – | – | – | – | –
O=C(Nc1c(-c2cccs2)nc2ccc(Cl)cn12)c1ccc(Cl)cc1 | 0.454% | 6.02% | 13.8% | – | – | -4.66% | -9.75% | – | – | – | – | – | –
